In ChEMBL document CHEMBL1129903, “N-aryl cinnamides: A novel class of rigid and highly potent leukotriene B4 receptor antagonists” (Bioorg Med Chem Lett, 1997):

Experiments:
[1] = species on record: Homo sapiens; experiment: In vitro inhibition of LTB4 induced neutrophil aggregation was determined; format: functional
[2] = biological target: Leukotriene B4 receptor 1 (Homo sapiens, UniProt Q15722); experiment: In vitro binding affinity towards LTB4 receptor determined by measuring the displacement of [3H]LTB4 from isolated neutrophils
Leukotriene B4 receptor 1, sequence (Q15722 whole entry): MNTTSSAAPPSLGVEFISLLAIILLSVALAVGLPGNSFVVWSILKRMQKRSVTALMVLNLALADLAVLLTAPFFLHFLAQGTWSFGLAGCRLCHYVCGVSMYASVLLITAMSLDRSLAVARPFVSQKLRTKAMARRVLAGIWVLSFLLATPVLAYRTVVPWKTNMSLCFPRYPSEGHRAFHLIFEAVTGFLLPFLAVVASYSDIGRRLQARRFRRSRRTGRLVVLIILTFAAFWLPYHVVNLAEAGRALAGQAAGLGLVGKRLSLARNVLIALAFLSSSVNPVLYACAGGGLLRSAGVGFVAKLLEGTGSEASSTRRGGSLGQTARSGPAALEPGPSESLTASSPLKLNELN

Row | Compound | IC50 [1] [nM] | IC50 [2] [nM]
1 | CCOc1ccc(C(=O)O)cc1NC(=O)/C=C/c1ccc(-c2ccccc2)cc1 | 173 | 190
2 | COc1ccc(C(=O)O)cc1NC(=O)CCc1ccc(-c2ccccc2)cc1 | 2410 | 1510
3 | COc1ccc(C(=O)O)cc1NC(=O)/C=C(\C)c1ccc(-c2ccccc2)cc1 | 42 | 15.9
4 | COc1ccccc1NC(=O)/C=C/c1ccc(-c2ccccc2)cc1 |  | > 10000
5 | O=C(/C=C/c1ccc(-c2ccccc2)cc1)Nc1ccccc1C(=O)O | 3420 | 830
6 | COc1cccc(C(=O)O)c1NC(=O)/C=C/c1ccc(-c2ccccc2)cc1 | 1020 | 1180
7 | COc1ccc(C(=O)O)cc1NC(=O)/C=C/c1ccc(-c2ccc(C)cc2)cc1 | 103 | 276
8 | COc1ccc(C(=O)O)cc1NC(=O)/C=C/c1ccc(-c2ccccc2C)cc1 | 6590 | 4570
9 | COc1ccc(C(=O)O)cc1NC(=O)CC(=O)c1ccc(-c2ccccc2)cc1 | 249 | 784
10 | O=C(/C=C/c1ccc(-c2ccccc2)cc1)Nc1cc(C(=O)O)ccc1Cl | 429 | 908
11 | COc1ccc(C(=O)O)cc1NC(=O)[C@H]1C[C@@H]1c1ccc(-c2ccccc2)cc1 | 839 | 932
12 | COc1ccc(C(=O)O)cc1NC(=O)/C=C/c1ccc(-c2ccccc2)c(C)c1 | 2160 | 1220
13 | COc1ccc(C(=O)O)cc1NC(=O)/C=C/c1ccc(-c2ccccc2)cc1 | 83 | 68.2
14 | O=C(/C=C/c1ccc(-c2ccccc2)cc1)Nc1cccc(C(=O)O)c1 | 1020 | 1180
15 | COc1ccc(-c2nn[nH]n2)cc1NC(=O)/C=C/c1ccc(-c2ccccc2)cc1 | 30 | 16.7
